# According to patent publication US20250367191A1, “TREATMENT OF MITOCHONDRIAL DISEASES WITH A CNS-PENETRANT SGC STIMULATOR ZAGOCIGUAT” (Tisento Therapeutics Inc., priority 2022, published 2025):
# Assays:
# [1] = Clinical trial in patients with stable schizophrenia: PK and safety; format: in vivo, human; conditions: total oral daily dosages up to 60 mg per day
# healthy participants = assay: Phase I trial NCT03856827, healthy participants aged 18 to 62: EEG; format: in vivo, human
# Protocol: Electroencephalography (EEG) is a technique that measures electrical activity in the brain (brain electrophysiology) by using electrodes places on the scalp. EEG-power spectral signals may be analyzed at different frequencies or frequency bands. They were analyzed at the following frequency bands in two prior phase 1 clinical trials with Compound I described below: Delta-1-4 Hz (typically associated with sleep), Theta-4-7.5 Hz (associated with waking/falling asleep, some association with cognition), Alpha-8-12 Hz (associated with passive wakefulness, and with cognitive processing), Beta-12-25 Hz (associated with alertness and concentration) and Gamma-25-45 Hz (associated with higher cognitive function). qEEG stands for quantitative electroencephalography. […]
# During EEG-ERP experiments, several key waveforms may be evaluated following a stimulus: N200 (associated with stimulus identification and distinction), P300 (associated with selective attention, information processing and cognitive speed/capacity), P200 (associated with aspects of selective attention or stimulus encoding), P50 (assciated with sensory gating, or the reduced neurophysiological response to redundant stimuli), and N100 (associated with early perceptal processes). […]
# [2] = system: mitochondrial disease patient cells; conditions: cited from earlier work
# [3] = system: participants diagnosed with MELAS; assay: MELAS study: fMRI-BOLD during resting state and visual stimulus; format: in vivo, human
# Protocol: Two exploratory functional neuroimaging modalities, arterial spin labeling (ASL) and functional magnetic resonance imaging (fMRI), were used to measure the potential PD effects of Compound I in the brain. While ASL quantifies regional CBF during the resting state, fMRI is a relative measure based on the blood-oxygen-level-dependent (BOLD) effect and was conducted during both a resting state and during a visual stimulus to measure brain activity.
# Each individual MRI scanning session took approximately 45 minutes (maximum of ˜1 hour).
# [4] = system: participants diagnosed with MELAS; assay: MELAS study: plasma biomarkers of mitochondrial dysfunction (lactate, GDF-15, FGF-21); format: in vivo, human
# Protocol: Plasma and serum samples for biomarkers were collected from each participant. These biomarkers tested the target engagement of Compound I as well as the impact of the compound on disease. Plasma or serum samples were analyzed for concentrations of growth differentiation factor 15 (GDF-15), lactate, pyruvate, alanine, neurofilament light chain (NFL), vascular cell adhesion molecule 1, interleukin-1beta, asymmetric dimethylarginine (ADMA), L arginine, and other biomarkers relevant to the pathophysiology of mitochondrial disease, as well as their response to Compound I.
# This change was observed across all brain regions of interest. Effect size throughout this disclosure is defined as the means change from baseline in a particular parameter that is being measured, divided by the standard deviation. Effect sizes closer to 1 or −1 (positive or negative dependent on the direction of movement for the specific parameter, i.e. +0.8 to +1.0 or −0.8 to −1.0) are usually considered large. Effect sizes between 0.5 and 0.8 or −0.5 and −0.8 (positive or negative dependent on the direction of movement for the specific parameter) are usually considered moderate. Effect sizes closer to below 0.5 or −0.5 (positive or negative dependent on the direction of movement for the specific parameter) are usually considered small.
# [5] = plasma, trend towards reduction
smiles,measurement,setting,value
"Fc1ccccc1Cc1nc(-c2nc(C(F)(F)F)n[nH]2)cn2ccnc12 [Compound I, zagociguat]","PK, dose proportionality",[1],proportional PK
same,safety and tolerability,[1],safe and well tolerated
same,ERP P300 amplitude,"healthy participants; QD dosing, healthy participants aged 18 to 62",increase in amplitude with increasing dose level
same,alpha power,"healthy participants; day 14, all dosage levels tested, compared to placebo",Improvements in alpha power
same,abundance of available adenosine triphosphate (ATP),[2]; mitochondrial disease patient cells,increasing the abundance of available adenosine triphosphate (ATP)
same,expression levels of DDAH2,[2]; patient cells,increased expression levels
same,expression levels of TFAM,[2]; patient cells,increased expression levels
same,"task-based functional MRI (visual activation, flashing checkerboard)",[3]; Day 29 compared to screening and Day 1,increased activation of voxels in the occipital region
same,"task-free functional MRI during resting state, connectivity",[3]; Day 29 compared to screening and day 1,enhanced connecitivity
same,participants with reductions in GDF-15,[4]; in vivo,4 of 8
same,participants with reductions in lactate,[4]; in vivo,6 of 8
same,"reductions in GDF-15, greatest",[4]; participants with higher baseline concentrations,up to 39%
same,"FGF-21, effect size",[4]; [5],−0.2
same,"GDF-15, effect size",[4]; [5],−0.5
same,"Lactate concentrations, effect size",[4]; [5],−0.5
